{"source": "patent US5164296A", "about": "“Assay methods involving ouabain” (priority 1990, dated 1992)", "key": {"[1]": {"assay": "Protein binding in plasma", "format": "in vitro ADME", "details": "EDLF described in the present invention"}, "digoxin antibodies": {"test_system": "digoxin antibodies", "details": "cited from earlier work"}, "[2]": {"biological_target": "T1, washed human red blood cells (Homo sapiens, UniProt P05023)", "T1 construct": "washed human red blood cells obtained by venipuncture; endogenous in cells; host or cells: washed human red blood cells (venipuncture)", "assay": "Inhibition of ouabain-sensitive ^86 Rb uptake by washed human red blood cells", "format": "cell-based", "experimental": "Fractions from the column were assayed for inhibition of ouabain-sensitive ^86 Rb uptake by washed human red blood cells obtained by venipuncture. This assay was used as an index of sodium transport activity (Hamlyn, J.M. et al, J. Biol. Chem., 264:7395-7404 (1989)).\nMore specifically, freshly washed cells were incubated for 2 hr at 37° C. (16% final hematocrit) in a final volume of 150 μl of flux buffer comprising 150 mM NaCl, 2.0 mM […] containing tracer amounts of ^86 Rb (DuPont--New England Nuclesr), 1.0 mM MgCl2, 1.0 mM Na2 HPO4, 2.0 mM CaCl2, 5.0 mM glucose and 20 mM HEPES-Tris (pH 7.4) (hereinafter \"flux fubber\"). Incubations were initiated by addition of column fractions to the cells. Aliquots were removed at various times and mixed with ice-cold flux buffer lacking ^86 Rb to quench the reactions. The quenched reactions were applied to a silicone oil cushion (Hysol XF1792B, Dexter Corp., Olean, N.Y.) in microcentrifuge tubes and centrifuged at 800×g for 10 min at 4° C. The red cell pellet was cut from deep-frozen tubes and trapped ^86 Rb was determined by γ-counting. Flux data were expressed as nmol of Rb uptake/10^8 cells. In each case, a value of 1.11×10^13 cells/liter was used to convert packed cell volumes to cell number for the flux data calculations. Ouabain-insensitive ^86 Rb uptake was estimated in parallel experiments by inclusion of 1.0 mM ouabain in the flux buffer. Ouabain-sensitive ^86 Rb uptake was taken as the total uptake minus that obtained in the presence of 1.0 mM ouabain.\nThe inhibition of ouabain-sensitive uptake of ^86 Rb was carried out as described above."}, "(Na^+ +K^+)ATPase [3]": {"biological_target": "T2, (Na^+ +K^+)ATPase (Canis lupus familiaris, UniProt P50997)", "T2 construct": "(Na^+ +K^+)ATPase was purified from the outer medulla of dog kidney; from tissue; host or cells: dog kidney outer medulla, purified membrane enzyme", "assay": "Competition for ^3 H-ouabain binding to purified (Na^+ +K^+)ATPase", "parameters": "species or system dog", "details": "competition for ^3 H-ouabain binding", "experimental": "More specifically, (Na^+ +K^+)ATPase was purified from the outer medulla of dog kidney using the angle rotor procedure (Jorgensen, P.L., Biochim. Biophys. Acta, 356:36-52 (1974)) and stored frozen at -60° C. at 1.0 mg/ml in 25 mM imidazole-HCl (pH 7.5) and 1.0 mM EDTA, in small aliquots. (Na^+ +K^+)ATPase activity was determined at 37° C. from rate measurements in 1.0 ml of coupled optical assay mixture comprising 20 mM KCl, 100 mM NaCl, 4.5 mM MgSO4, 5.0 mM EGTA, 3.0 mM ATP-Na2, 1.2 mM phosphoenol-pyruvate-tricyclohexylammonium, 0.3 mM NADH, 100 mM TES-Tris (ph 7.4), 5.0 units of lactate dehydrogenase, and 5.0 units of pyruvate kinase (Hamlyn, J.M. et al, Nature, 300:650-652 (1982)). (Na^+ +K^+)ATPase activity was 99% ouabain-inhibitable with activities of 10-18 μmol/min/mg of membrane protein. Maximally effective concentrations of digitalis-like activity had no effect on the enzymatic components of the coupled optical assay as determined by inspection of rates in response to addition of 20-50 μM ADP. The maximal capacity of the coupled optical assay was at least 500-2000 fold greater than the typical maximal hydrolytic rate of the (Na^+ +K^+)ATPase and was not rate limiting under any assay condition described herein.\nCompetition for ^3 H-ouabain (Amersham Corp. or DuPont-New England Nuclear) binding was carried out in 670 μl of binding buffer comprising, in final concentrations, 10 mM TES-Tris (pH 7.4), 0.5 mM EDTA, 5.0 mM MgCl2 and 5.0 mM Na2 HPO4 (hereinafter \"binding buffer\") and 50 nM ouabain containing ^3 H-ouabain tracer, and including the unknown sample. Binding was initiated by addition of 0.1-2 μg of purified (Na^+ +K^+)ATPase and the reaction performed for 2 hr at 37° C. […] Trapped ^3 H-ouabain was determined by scintillation counting, following 12 hr of soaking the filters in 4.0 ml of Beckman Ready Protein ™ scintillation cocktail (Beckman, Palo Alto, Calif.). […] All binding data were corrected for quench, and specific binding was expressed as pmol/mg of enzyme protein. […]"}, "(Na^+ +K^+)ATPase [4]": {"test_system": "(Na^+ +K^+)ATPase", "details": "type II-phosphorylating conditions; cited from earlier work"}, "[5]": {"details": "50 ml of plasma equivalents from the UV peak at 32 min"}}}
{"smiles": "CC1OC(OC2CC(O)C3(CO)C4C(O)CC5(C)C(C6=CC(=O)OC6)CCC5(O)C4CCC3(O)C2)C(O)C(O)C1O", "note": "(centres unmarked) [human ouabain]", "values": [{"measurement": "protein binding in plasma", "setting": "[1]", "result": "not highly protein bound in plasma"}, {"measurement": "cross-reaction with digoxin antibodies", "setting": "digoxin antibodies", "result": "does not cross-react"}, {"measurement": "effect on ouabain-insensitive uptake", "setting": "[2]; [5]", "result": "no effect"}, {"measurement": "inhibition of ouabain-sensitive ^86 Rb uptake", "setting": "[2]; [5]", "result": 80, "unit": "%"}, {"measurement": "Hill coefficient", "setting": "[2]; inhibition of ouabain-sensitive uptake of ^86 Rb", "result": -0.99}, {"measurement": "Hill coefficient", "setting": "(Na^+ +K^+)ATPase [3]", "result": -0.97}, {"measurement": "Kd", "setting": "(Na^+ +K^+)ATPase [3]; read-out: calculated apparent Kd value, 50 nM ouabain, 2 hr at 37° C.", "result": 7.7, "unit": "nM"}, {"measurement": "affinity higher than that of ouabain", "setting": "(Na^+ +K^+)ATPase [4]", "result": "12-25 fold"}]}
